US8586579B2, “Anellated pyridine compounds” (Hoffmann-La Roche Inc., priority 2010, dated 2013)
Like-named read-outs stand apart in the source and are kept apart here.

Key:
human 5-HT2A receptor = human 5-HT2A receptor (Homo sapiens (Human), UniProt P28223); assay: Radioligand binding assay, [3H]-ketanserin, human 5-HT2A receptor
Method: (§1) HEK293 EBNA cells were transiently transfected with expression plasmids encoding for the human D2 or D3 or for the human 5-HT2A receptor, respectively. The cells were harvested 48 h post-transfection, washed three times with cold PBS and stored at −80° C. prior to use. The pellet was suspended in cold 50 mM Tris-HCl buffer comprising 10 mM EDTA (pH 7.4) and was homogenized with a Polytron (Kinematica AG, Basel, Switzerland) for 20-30 sec at 12.000 rpm. After centrifugation at 48.000×g for 30 min at 4° C., the pellet was resuspended in cold 10 mM Tris-HCl buffer comprising 0.1 mM EDTA (pH 7.4), homogenized, and centrifuged as above. This pellet was further resuspended in a smaller volume of ice cold 10 mM Tris-HCl buffer comprising 0.1 mM EDTA (pH 7.4) and homogenized with a Polytron for 20-30 sec at 12.000 rpm. The protein content of this homogenate was determined with the Bio-Rad (Bradford) Protein Assay (Biorad Laboratories GmbH, München, Germany) according to the instructions of the manufacturer using gamma globulin as the standard. This homogenate was stored at −80° C. in aliquots and thawed immediately prior to use.
(§2) Aliquots of membrane preparations were thawed at RT, resuspended in assay buffer (D2, D3: 50 mM Tris-HCl, 120 mM NaCl, 5 mM MgCl2, 1 mM EDTA, 5 mM KCl, 1.5 mM CaCl2, pH=7.4; 5-HT2A: 50 mM Tris-HCl, 10 mM MgCl2, 1 mM EGTA, pH=7.4), homogenized with a Polytron for 20-30 sec at 12.000 rpm and adjusted to a final concentration of approximately 7.5 μg protein/well (D2, D3) and 15 μg protein/well (5-HT2A), respectively.
(§3) The binding affinity (Ki) of the compounds was determined using radioligand binding. Membranes were incubated in a total volume of 200 μl with a fixed concentration of radioligand (final concentration approximately 0.7 nM [^3H]-spiperone for D2, 0.5 nM [^3H]-spiperone for D3, and 1.1 nM [^3H]-ketanserin for 5-HT2A) and ten concentrations of test compound in ranging between 10 μM-0.1 nM for 1 h at RT. […] The nonspecific binding was determined with equally composed reaction mixtures in the presence of 10 μM unlabelled spiperone. Per well 45 μl of Microscint 40 (Perkin Elmer, Schwerzenbach, Switzerland) was added, plates for sealed, shaken for 20 min and counted for 3 min on a Topcount Microplate Scintillation Counter (Can berra Packard SA, Zürich, Switzerland) with quenching correction.
(§4) The CPM value for each duplicate of a concentration of competing compound was averaged (y1), then the % specific binding was calculated according to the equation (((y1−non-specific)/(total binding−non-specific))×100). Graphs were plotted with the % specific binding using XLfit, a curve fitting program that iteratively plots the data using Levenberg-Marquardt algorithm. The single site competition analysis equation used was y=A+((B−A)/(1+((x/C)D))), where y is the % specific binding, A is the minimum y, B is the maximum y, C is the IC50, x is the log 10 of the concentration of the competing compound and D is the slope of the curve (the Hill Coefficient). […] The affinity constant (K) was calculated using the Cheng-Prusoff equation Ki=(IC50/1+([L]/Kd), where [L] is the concentration of radioligand and Kd is the dissociation constant of the radioligand at the receptor as determined by the saturation isotherm.

human D2 receptor = human D2 receptor (Homo sapiens (Human), UniProt P14416); assay: Radioligand binding assay, [3H]-spiperone, human D2 receptor; settings: membranes of HEK293 EBNA cells expressing human D2; 0.7 nM [3H]-spiperone
Method: as §1, §2, §3
as §4, with “algorithm.” for “algorithm. The single site competition analysis equation used was y=A+((B−A)/(1+((x/C)D))), where y is the % specific binding, A is the minimum y, B is the maximum y, C is the IC50, x is the log 10 of the concentration of the competing compound and D is the slope of the curve (the Hill Coefficient).”

human D3 receptor = human D3 receptor (Homo sapiens (Human), UniProt P35462); assay: Radioligand binding assay, [3H]-spiperone, human D3 receptor; settings: membranes of HEK293 EBNA cells expressing human D3; 0.5 nM [3H]-spiperone
Method: as §1, §2, §3, §4

[1] = membranes of HEK293 EBNA cells expressing human 5-HT2A, 1.1 nM [3H]-ketanserin

Sequence of human D3 receptor (P35462 whole entry): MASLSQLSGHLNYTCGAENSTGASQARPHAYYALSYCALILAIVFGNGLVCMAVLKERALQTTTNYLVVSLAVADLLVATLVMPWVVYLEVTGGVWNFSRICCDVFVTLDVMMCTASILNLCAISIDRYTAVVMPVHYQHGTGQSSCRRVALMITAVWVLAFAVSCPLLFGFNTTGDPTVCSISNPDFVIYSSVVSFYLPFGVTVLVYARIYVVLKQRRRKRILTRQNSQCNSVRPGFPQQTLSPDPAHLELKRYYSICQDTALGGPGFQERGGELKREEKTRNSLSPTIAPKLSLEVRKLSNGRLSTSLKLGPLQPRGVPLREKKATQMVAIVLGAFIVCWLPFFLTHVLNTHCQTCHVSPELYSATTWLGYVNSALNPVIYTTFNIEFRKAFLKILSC
Sequence of human 5-HT2A receptor (P28223 whole entry): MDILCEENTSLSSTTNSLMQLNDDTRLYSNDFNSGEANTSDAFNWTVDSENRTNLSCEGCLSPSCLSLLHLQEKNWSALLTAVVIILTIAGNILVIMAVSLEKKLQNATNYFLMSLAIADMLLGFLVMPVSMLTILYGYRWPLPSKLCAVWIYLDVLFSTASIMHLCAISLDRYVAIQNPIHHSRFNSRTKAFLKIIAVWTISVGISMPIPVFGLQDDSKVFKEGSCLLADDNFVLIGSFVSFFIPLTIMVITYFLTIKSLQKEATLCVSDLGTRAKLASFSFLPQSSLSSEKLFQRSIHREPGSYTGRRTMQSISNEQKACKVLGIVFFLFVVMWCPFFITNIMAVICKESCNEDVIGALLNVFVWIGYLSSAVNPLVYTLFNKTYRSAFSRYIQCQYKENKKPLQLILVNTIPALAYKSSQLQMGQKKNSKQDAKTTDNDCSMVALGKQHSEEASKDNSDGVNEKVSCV
Sequence of human D2 receptor (P14416 whole entry): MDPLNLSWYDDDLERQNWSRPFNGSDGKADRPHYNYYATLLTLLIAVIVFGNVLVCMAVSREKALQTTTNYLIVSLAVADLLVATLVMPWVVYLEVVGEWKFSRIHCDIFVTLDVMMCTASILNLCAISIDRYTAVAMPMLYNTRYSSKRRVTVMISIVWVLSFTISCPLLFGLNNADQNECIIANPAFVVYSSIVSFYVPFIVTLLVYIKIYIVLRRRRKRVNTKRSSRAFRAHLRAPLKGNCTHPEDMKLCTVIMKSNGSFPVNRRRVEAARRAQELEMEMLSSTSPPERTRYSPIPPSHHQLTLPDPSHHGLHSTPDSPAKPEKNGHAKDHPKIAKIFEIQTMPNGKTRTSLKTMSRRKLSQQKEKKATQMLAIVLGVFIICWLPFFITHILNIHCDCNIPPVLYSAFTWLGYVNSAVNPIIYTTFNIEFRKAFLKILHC

SMILES | Ki (human 5-HT2A receptor; [1]) | melting point | Ki (human D2 receptor) | Ki (human D3 receptor) | Ki (human 5-HT2A receptor)
O=C(CC1COCCO1)N[C@H]1CC[C@H](CCN2CCN(c3nccc4c3CCO4)CC2)CC1 (mixture of isomers) [Example 37, trans-N-(4-{2-[4-(2,3-Dihydrofuro[3,2-c]pyridin-4-yl)-piperazin-1-yl]-ethyl}-cyclohexyl)-2-(rac-1,4-dioxan-2-yl)-acetamide] | 9.7 nM | 186 °C | 1470 nM |  | 
O=C(N[C@H]1CC[C@H](CCN2CCN(c3nccc4c3CCO4)CC2)CC1)C1CCOC1 (mixture of isomers) [Example 42, trans-N-(4-{2-[4-(2,3-Dihydrofuro[3,2-c]pyridin-4-yl)-piperazin-1-yl]-ethyl}-cyclohexyl)-rac-tetrahydrofuran-3-carboxamide] | 9.9 nM | 208.5 °C | 609 nM | 18.2 nM | 
O=C(N[C@H]1CC[C@H](CCN2CCN(c3nccc4c3CCO4)CC2)CC1)C1CCCOC1 (mixture of isomers) [Example 53, rac-Tetrahydro-pyran-3-carboxylic acid trans-(4-{2-[4-(2,3-dihydro-furo[3,2-c]pyridin-4-yl)-piperazin-1-yl]-ethyl}-cyclohexyl)-amide] |  | 216 °C |  | 28.8 nM | 
O=C(CC1CCCO1)N[C@H]1CC[C@H](CCN2CCN(c3nccc4c3CCO4)CC2)CC1 (mixture of isomers) [Example 64, trans-N-(4-{2-[4-(2,3-Dihydro-furo[3,2-c]pyridin-4-yl)-piperazin-1-yl]-ethyl}-cyclohexyl)-2-rac-(tetrahydro-furan-2-yl)-acetamide] | 16.7 nM | 181.5 °C | 1260 nM | 24.2 nM | 
CCC(C)C(=O)N[C@H]1CC[C@H](CCN2CCN(c3nccc4c3CCO4)CC2)CC1 (mixture of isomers) [Example 76, trans-N-(4-{2-[4-(2,3-Dihydro-furo[3,2-c]pyridin-4-yl)-piperazin-1-yl]-ethyl}-cyclohexyl)-rac-2-methyl-butyramide] | 13.2 nM | 205.5 °C | 709 nM | 25.4 nM | 
O=C(N[C@H]1CC[C@H](CCN2CCN(c3nccc4c3CCO4)CC2)CC1)C(O)C(F)(F)F (mixture of isomers) [Example 112, trans-(RS)—N-(4-{2-[4-(2,3-Dihydro-furo[3,2-c]pyridin-4-yl)-piperazin-1-yl]-ethyl}-cyclohexyl)-3,3,3-trifluoro-2-hydroxy-propionamide] |  | 204 °C |  | 37.9 nM | 
O=C(CC1C[C@H](O)CO1)N[C@H]1CC[C@H](CCN2CCN(c3nccc4c3CCO4)CC2)CC1 (stereo in doubt) [Example 91, trans-N-(4-{2-[4-(2,3-Dihydro-furo[3,2-c]pyridin-4-yl)-piperazin-1-yl]-ethyl}-cyclohexyl)-2-((S)-4-hydroxy-tetrahydro-furan-2-yl)-acetamide] | 22.5 nM | 155 °C | 926 nM | 14.2 nM | 
CC(=O)N[C@H]1CC[C@H](CCN2CCN(c3nccc4c3CCO4)CC2)CC1 [Example 32, trans-N-(4-{2-[4-(2,3-Dihydro-furo[3,2-c]pyridin-4-yl)-piperazin-1-yl]-ethyl}-cyclohexyl)-acetamide] | 22.9 nM | 260 °C | 770 nM | 12.7 nM | 
O=C(N[C@H]1CC[C@H](CCN2CCN(c3nccc4c3CCO4)CC2)CC1)C1CCOCC1 [Example 33, trans-N-(4-{2-[4-(2,3-Dihydrofuro[3,2-c]pyridin-4-yl)-piperazin-1-yl]-ethyl}-cyclohexyl)-tetrahydro-2H-pyran-4-carboxamide] | 5.9 nM | 263 °C | 504 nM | 38.2 nM | 
O=C(CC1CCOCC1)N[C@H]1CC[C@H](CCN2CCN(c3nccc4c3CCO4)CC2)CC1 [Example 34, trans-N-(4-{2-[4-(2,3-Dihydrofuro[3,2-c]pyridin-4-yl)-piperazin-1-yl]-ethyl}-cyclohexyl)-2-(tetrahydro-2H-pyran-4-yl)-acetamide] | 20.1 nM | 233 °C | 869 nM | 24.9 nM | 
COCCC(=O)N[C@H]1CC[C@H](CCN2CCN(c3nccc4c3CCO4)CC2)CC1 [Example 35, trans-N-(4-{2-[4-(2,3-Dihydrofuro[3,2-c]pyridin-4-yl)-piperazin-1-yl]-ethyl}-cyclohexyl)-3-methoxypropanamide] | 24.1 nM | 246.5 °C | 1490 nM | 17.4 nM | 
CCC(=O)N[C@H]1CC[C@H](CCN2CCN(c3nccc4c3CCO4)CC2)CC1 [Example 36, trans-N-(4-{2-[4-(2,3-Dihydrofuro[3,2-c]pyridin-4-yl)-piperazin-1-yl]-ethyl}-cyclohexyl)-propionamide] | 13.3 nM | 192.5 °C | 813 nM | 9.7 nM | 
COCC(=O)N[C@H]1CC[C@H](CCN2CCN(c3nccc4c3CCO4)CC2)CC1 [Example 38, trans-N-(4-{2-[4-(2,3-Dihydrofuro[3,2-c]pyridin-4-yl)-piperazin-1-yl]-ethyl}-cyclohexyl)-2-methoxyacetamide] |  | 169.5 °C | 1550 nM | 45.4 nM | 11 nM
CS(=O)(=O)CC(=O)N[C@H]1CC[C@H](CCN2CCN(c3nccc4c3CCO4)CC2)CC1 [Example 39, trans-N-(4-{2-[4-(2,3-Dihydrofuro[3,2-c]pyridin-4-yl)-piperazin-1-yl]-ethyl}-cyclohexyl)-methylsulfonyl-acetamide] |  | 260.5 °C | 1020 nM | 9.8 nM | 16.1 nM
O=C(C[C@@H]1COCCO1)N[C@H]1CC[C@H](CCN2CCN(c3nccc4c3CCO4)CC2)CC1 [Example 61, trans-N-(4-{2-[4-(2,3-Dihydro-furo[3,2-c]pyridin-4-yl)-piperazin-1-yl]-ethyl}-cyclohexyl)-2-(R)-[1,4]dioxan-2-yl-acetamide] | 11.8 nM | 193.5 °C | 1120 nM |  | 
O=C(N[C@H]1CC[C@H](CCN2CCN(c3nccc4c3CCO4)CC2)CC1)c1ccnc2ccccc12 [Example 62, Quinoline-4-carboxylic acid trans-(4-{2-[4-(2,3-dihydro-furo[3,2-c]pyridin-4-yl)-piperazin-1-yl]-ethyl}-cyclohexyl)-amide] | 3.62 nM | 210 °C |  | 10.7 nM | 
O=C(C[C@H]1COCCO1)N[C@H]1CC[C@H](CCN2CCN(c3nccc4c3CCO4)CC2)CC1 [Example 67, trans-N-(4-{2-[4-(2,3-Dihydro-furo[3,2-c]pyridin-4-yl)-piperazin-1-yl]-ethyl}-cyclohexyl)-2-(S)-[1,4]dioxan-2-yl-acetamide] | 8.15 nM | 192 °C | 1460 nM |  | 
O=C(N[C@H]1CC[C@H](CCN2CCN(c3nccc4c3CCO4)CC2)CC1)c1ccc(Cl)cc1Cl [Example 132, trans-2,4-Dichloro-N-(4-{2-[4-(2,3-dihydro-furo[3,2-c]pyridin-4-yl)-piperazin-1-yl]-ethyl}-cyclohexyl)-benzamide] | 21.7 nM | 203.5 °C |  | 26.7 nM | 
